Assay results as given in US9023821B2, “Use of MicroRNA for treating diseases associated with a dysfunction of the cilia in multiciliated epithelial cells” (Centre National de la Recherche Scientifique, priority 2009, dated 2015).

Legend:
[1] = system: human airway epithelial cells (HAECs); experiment: High-throughput sequencing (HTS) of miRNAs at four stages of differentiation of HAECs; conditions: for Modulation (ratio of the level of intensity of expression in log2 in two stages of differentiation) measured by high-throughput sequencing, D7 − D0 / Modulation (ratio of the level of intensity of expression in log2 in two stages of differentiation) measured by high-throughput sequencing, FC − D7 / Modulation (ratio of the level of intensity of expression in log2 in two stages of differentiation) measured by high-throughput sequencing, WD − D0 / Modulation (ratio of the level of intensity of expression in log2 in two stages of differentiation) measured by high-throughput sequencing, WD − FC / Level of intensity of expression in log2 measured by high-throughput sequencing, D0 / Level of intensity of expression in log2 measured by high-throughput sequencing, D7 / Level of intensity of expression in log2 measured by high-throughput sequencing, FC / Level of intensity of expression in log2 measured by high-throughput sequencing, WD: Table VI; for Level of intensity of expression in log2 At the differentiated stage (WD) measured in HTS: healthy human airway epithelial tissue; for Level of intensity of expression in log2 measured by high-throughput sequencing, D0: stage D0; for Level of intensity of expression in log2 measured by high-throughput sequencing, D7: stage D7; for Level of intensity of expression in log2 measured by high-throughput sequencing, FC: stage FC; for Level of intensity of expression in log2 At the differentiated stage (WD) measured in HTS / Level of intensity of expression in log2 measured by high-throughput sequencing, WD: stage WD
Method in brief: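 Differentiation time course at air-liquid interface: 0, 7, ~14 (first cilia) and ~21 days (fully differentiated). Sequencing counts per strand were normalized to 10^6 sequences and analysed by linear model with empirical Bayesian moderation.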

[2] = system: basal cells and pyramidal cells of the airway epithelium; experiment: miRNA expression in sorted basal cells versus pyramidal cells (ciliated + secretory), HTS and Agilent chips; design: species or system human; conditions: for Modulation of expression of the miRNAs in pyramidal cells (323(−)) relative to basal cells 323(+): HTS and Agilent chips; for Intensity of the level of expression in log2 in pyramidal cells (323(−)): pyramidal cells (ciliated + secretory)
Method in brief: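 Sorted basal versus ciliated/mucus-secreting cells; markers CD151 and tissue factor; donors n=3; miRNA by Agilent chip or HTS.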

[3] = system: human airway epithelial cells (HAECs); experiment: Agilent miRNA chips, miRNA expression at four stages of differentiation of HAECs; conditions: for Modulation (ratio of the level of intensity of expression in log2 in two stages of differentiation) measured with the Agilent chips, D7 − D0 / Modulation (ratio of the level of intensity of expression in log2 in two stages of differentiation) measured with the Agilent chips, FC − D7 / Modulation (ratio of the level of intensity of expression in log2 in two stages of differentiation) measured with the Agilent chips, WD − D0 / Modulation (ratio of the level of intensity of expression in log2 in two stages of differentiation) measured with the Agilent chips, WD − FC / Level of intensity of expression in log2 measured with the Agilent chips, D0 / Level of intensity of expression in log2 measured with the Agilent chips, D7 / Level of intensity of expression in log2 measured with the Agilent chips, FC / Level of intensity of expression in log2 measured with the Agilent chips, WD: Table VI; for Level of intensity of expression in log2 measured with the Agilent chips, D0: stage D0; for Level of intensity of expression in log2 measured with the Agilent chips, D7: stage D7; for Level of intensity of expression in log2 measured with the Agilent chips, FC: stage FC; for Level of intensity of expression in log2 measured with the Agilent chips, WD: stage WD; for Modulation (ratio of the level of intensity of expression in log2 at two stages of differentiation), FC − D7 / Modulation (ratio of the level of intensity of expression in log2 at two stages of differentiation), WD − FC: Agilent miRNA chips, Table V
Method in brief: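 Patient RNA samples, the same ones analysed by high-throughput sequencing, were first labelled, then hybridized onto arrays carrying 866 human and 89 human viral miRNAs (miRBase v.12.0), following the supplied labelling and hybridization protocol.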

| Substance | Modulation (ratio of the level of intensity of expression in log2 in two stages of differentiation) measured by high-throughput sequencing, D7 − D0 [1] | Modulation (ratio of the level of intensity of expression in log2 in two stages of differentiation) measured by high-throughput sequencing, FC − D7 [1] | Modulation (ratio of the level of intensity of expression in log2 in two stages of differentiation) measured by high-throughput sequencing, WD − D0 [1] | Modulation (ratio of the level of intensity of expression in log2 in two stages of differentiation) measured by high-throughput sequencing, WD − FC [1] | Level of intensity of expression in log2 At the differentiated stage (WD) measured in HTS [1] | Level of intensity of expression in log2 measured by high-throughput sequencing, D0 [1] | Level of intensity of expression in log2 measured by high-throughput sequencing, D7 [1] | Level of intensity of expression in log2 measured by high-throughput sequencing, FC [1] | Level of intensity of expression in log2 measured by high-throughput sequencing, WD [1] | Modulation of expression of the miRNAs in pyramidal cells (323(−)) relative to basal cells 323(+) [2] | Intensity of the level of expression in log2 in basal cells (323(+)) [2] | Intensity of the level of expression in log2 in pyramidal cells (323(−)) [2] | Modulation (ratio of the level of intensity of expression in log2 in two stages of differentiation) measured with the Agilent chips, D7 − D0 [3] | Modulation (ratio of the level of intensity of expression in log2 in two stages of differentiation) measured with the Agilent chips, FC − D7 [3] | Modulation (ratio of the level of intensity of expression in log2 in two stages of differentiation) measured with the Agilent chips, WD − D0 [3] | Modulation (ratio of the level of intensity of expression in log2 in two stages of differentiation) measured with the Agilent chips, WD − FC [3] | Level of intensity of expression in log2 measured with the Agilent chips, D0 [3] | Level of intensity of expression in log2 measured with the Agilent chips, D7 [3] | Level of intensity of expression in log2 measured with the Agilent chips, FC [3] | Level of intensity of expression in log2 measured with the Agilent chips, WD [3] | also measured |
| --- | --- | --- | --- | --- | --- | --- | --- | --- | --- | --- | --- | --- | --- | --- | --- | --- | --- | --- | --- | --- | --- |
| hsa-miR-92b: human miRNA, SEQ ID No. 49 (UAUUGCACUCGUCCCGGCCUCC; expressed or natural sequence; listed as Homo sapiens) | 1.21 log2 | 4.12 log2 | 5.93 log2 | 0.60 log2 | 0.01 log2 | 7.49 log2 | 8.70 log2 | 12.82 log2 | 13.42 log2 | 1.67 | 0.40 log2 | 2.07 log2 | 0.48 log2 | 4.21 log2 | 4.39 log2 | −0.29 log2 | 0.10 log2 | 0.57 log2 | 4.78 log2 | 4.49 log2 | Modulation (ratio of the level of intensity of expression in log2 in two stages of differentiation), D7 − D0 ([1]; HTS): 1.21 log2; Modulation (ratio of the level of intensity of expression in log2 in two stages of differentiation), FC − D7 ([1]; HTS): 4.12 log2; Modulation (ratio of the level of intensity of expression in log2 in two stages of differentiation), WD − FC ([1]; HTS): 0.60 log2; Abundance (%), D0 ([1]; HTS, ALI-D0): 0.04%; Abundance (%), D7 ([1]; HTS, ALI-D7): 0.09%; Abundance (%), FC ([1]; HTS, ALI-FC): 1.54%; Abundance (%), WD ([1]; HTS, ALI-WD): 1.77% |
| hsa-miR-30e: human miRNA, SEQ ID No. 36 (UGUAAACAUCCUUGACUGGAAG; expressed or natural sequence; listed as Homo sapiens) | 1.27 log2 | −0.02 log2 | 1.71 log2 | 0.46 log2 | 12.74 log2 | 7.04 log2 | 8.31 log2 | 8.30 log2 | 8.76 log2 | −1.60 | 6.94 log2 | 5.34 log2 | 2.76 log2 | −0.25 log2 | 2.38 log2 | −0.13 log2 | 6.73 log2 | 9.50 log2 | 9.25 log2 | 9.12 log2 | Modulation (ratio of the level of intensity of expression in log2 at two stages of differentiation), FC − D7 [3]: −0.25 log2; Modulation (ratio of the level of intensity of expression in log2 at two stages of differentiation), WD − FC [3]: −0.13 log2 |
| hsa-let-7c: human miRNA, SEQ ID No. 159 (UGAGGUAGUAGGUUGUAUGGUU; expressed or natural sequence; listed as Homo sapiens) | 0.14 log2 | 0.21 log2 | 0.90 log2 | 0.55 log2 | 7.86 log2 | 6.96 log2 | 7.10 log2 | 7.31 log2 | 7.86 log2 | −0.48 | 9.43 log2 | 8.95 log2 | 1.61 log2 | −0.71 log2 | 1.05 log2 | 0.14 log2 | 9.10 log2 | 10.71 log2 | 10.00 log2 | 10.15 log2 | Modulation (ratio of the level of intensity of expression in log2 at two stages of differentiation), FC − D7 [3]: −0.71 log2; Modulation (ratio of the level of intensity of expression in log2 at two stages of differentiation), WD − FC [3]: 0.14 log2 |
| hsa-miR-22: human miRNA, SEQ ID No. 23 (AAGCUGCCAGUUGAAGAACUGU; expressed or natural sequence; listed as Homo sapiens) | 0.80 log2 | −1.14 log2 | 0.40 log2 | 0.73 log2 | 11.22 log2 | 8.89 log2 | 9.69 log2 | 8.55 log2 | 9.29 log2 | −1.73 | 8.81 log2 | 7.07 log2 | 1.09 log2 | −0.66 log2 | 0.48 log2 | 0.05 log2 | 10.67 log2 | 11.75 log2 | 11.10 log2 | 11.15 log2 | Modulation (ratio of the level of intensity of expression in log2 at two stages of differentiation), FC − D7 [3]: −0.66 log2; Modulation (ratio of the level of intensity of expression in log2 at two stages of differentiation), WD − FC [3]: 0.05 log2 |
